Assays:
[1] = tested on: Myotonic Dystrophy 1 affected patient fibroblasts (Coriel GM04602; 1600 CTG repeats); assay: DM1 foci reduction assay (EC50 assay; CAG10-Cy3 FISH, foci per nucleus); format: cell-based; conditions: Homo sapiens, Fibroblast; DM1 patient fibroblasts, foci per nucleus, 48 h treatment; read-out: DM1 EC50, 48 h
Method in brief: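 Foci per nucleus counted by 20× imaging of 4 areas per well, after overnight FISH with 5 nM CAG10-Cy3 and DAPI staining of fixed, permeabilized cells. DM1 fibroblasts (GM04602, 1600 CTG) were dosed 48 h at 37 °C, 8 points, 3-fold dilutions, 3 μM top concentration.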

[2] = tested on: F35T cells; assay: Foci reduction in FECD (CAG10-Cy3 FISH, foci per nucleus); format: cell-based; conditions: F35T cells, foci per nucleus, 48 h treatment; read-out: FECD EC50, 48 h
Method in brief: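 Foci per nucleus were counted by imaging after overnight CAG10-Cy3 FISH at 37 °C (30% formamide, 2×SSC) with DAPI counterstain, on PFA-fixed, ethanol-permeabilized F35T cells. The cells, seeded at 5000 per well in supplemented Opti-MEM, had received 8-point compound dilutions for 48 h at 37 °C.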

**Q.** Which EC50 [1] does the source give for `CCCNC(=O)CCNC(=O)c1nc(NC(=O)c2cc(NC(=O)CCNC(=O)c3nc(NC(=O)C[C@@H](N)CNC(=O)c4cc(NC(=O)c5nc(NC(=O)CCNC(=O)c6cc(NC(=O)c7nccn7C)cn6C)cn5C)cn4C)cn3C)cn2C)cn1C` [Compound B-415] here?
**A.** 100 to 500 nM

**Q.** What about the EC50 [2] of the same molecule?
**A.** 100 to 500 nM

**Q.** How did the EC50 [1] turn out when `CN1CCN(C(=O)CCNC(=O)c2nc(NC(=O)c3cc(NC(=O)CCNC(=O)c4nc(NC(=O)C[C@@H](N)CNC(=O)c5cc(NC(=O)c6nc(NC(=O)CCNC(=O)c7cc(NC(=O)c8nccn8C)cn7C)cn6C)cn5C)cn4C)cn3C)cn2C)CC1` [Compound B-416] was run?
**A.** 500 to 1000 nM

**Q.** And the EC50 [2]?
**A.** > 1000 nM

**Q.** With `CN1CCN(C(=O)CCNC(=O)c2nc(NC(=O)c3cc(NC(=O)CCNC(=O)c4nc(NC(=O)C[C@H](CNC(=O)c5cc(NC(=O)c6nc(NC(=O)CCNC(=O)c7cc(NC(=O)c8nccn8C)cn7C)cn6C)cn5C)NC(=O)c5ccccc5)cn4C)cn3C)cn2C)CC1` [Compound B-417] as the molecule, how does the EC50 [1] read?
**A.** 100 to 500 nM

**Q.** What about the EC50 [2] of the same molecule?
**A.** < 100 nM

**Q.** For `Cn1cc(NC(=O)c2nccn2C)cc1C(=O)NCCC(=O)Nc1cn(C)c(C(=O)Nc2cc(C(=O)NC[C@H](N)CC(=O)Nc3cn(C)c(C(=O)NCCC(=O)Nc4cc(C(=O)Nc5cn(C)c(C(=O)NCCC(=O)N6CCCCC6)n5)n(C)c4)n3)n(C)c2)n1` [Compound B-418], which EC50 [1] is on record?
**A.** 100 to 500 nM

**Q.** What about the EC50 [2] of the same molecule?
**A.** < 100 nM

**Q.** With `Cn1cc(NC(=O)c2nccn2C)cc1C(=O)NCCC(=O)Nc1cn(C)c(C(=O)Nc2cc(C(=O)NC[C@H](N)CC(=O)Nc3cn(C)c(C(=O)NCCC(=O)Nc4cc(C(=O)Nc5cn(C)c(C(=O)NCCC(=O)N6CCC(C#CC#CC7CCNCC7)CC6)n5)n(C)c4)n3)n(C)c2)n1` [Compound B-419] as the molecule, how does the EC50 [1] read?
**A.** 100 to 500 nM

**Q.** What about the EC50 [2] of the same molecule?
**A.** < 100 nM

**Q.** With `CCCCn1cc(NC(=O)c2nc(NC(=O)CCNC(=O)c3cc(NC(=O)c4nccn4C)cn3C)cn2C)cc1C(=O)NC[C@H](N)CC(=O)Nc1cn(C)c(C(=O)NCCC(=O)Nc2cc(C(=O)Nc3cn(C)c(C(=O)NCCC(=O)N4CCN(C)CC4)n3)n(C)c2)n1` [Compound B-420] as the molecule, how does the EC50 [1] read?
**A.** 100 to 500 nM

**Q.** What about the EC50 [2] of the same molecule?
**A.** 500 to 1000 nM

**Q.** For `CCCNC(=O)c1nc(NC(=O)c2cc(NC(=O)CCNC(=O)c3nc(NC(=O)C[C@@H](N)CNC(=O)c4cc(NC(=O)c5nc(NC(=O)CCNC(=O)c6cc(NC(=O)c7nccn7C)cn6C)cn5C)cn4C)cn3C)cn2C)cn1C` [Compound B-421], which EC50 [1] is on record?
**A.** < 100 nM

**Q.** What about the EC50 [2] of the same molecule?
**A.** < 100 nM

**Q.** How did the EC50 [1] turn out when `CN(C)CCCCNC(=O)c1nc(NC(=O)c2cc(NC(=O)CCNC(=O)c3nc(NC(=O)C[C@@H](N)CNC(=O)c4cc(NC(=O)c5nc(NC(=O)CCNC(=O)c6cc(NC(=O)c7nccn7C)cn6C)cn5C)cn4C)cn3C)cn2C)cn1C` [Compound B-422] was run?
**A.** > 1000 nM

**Q.** And the EC50 [2]?
**A.** > 1000 nM

**Q.** How did the EC50 [1] turn out when `CCCCn1cc(NC(=O)c2nc(NC(=O)CCNC(=O)c3cc(NC(=O)c4nccn4C)cn3C)cn2C)cc1C(=O)NC[C@H](N)CC(=O)Nc1cn(C)c(C(=O)NCCC(=O)Nc2cc(C(=O)Nc3cn(C)c(C(=O)NCCCCN(C)C)n3)n(C)c2)n1` [Compound B-423] was run?
**A.** 100 to 500 nM

**Q.** And the EC50 [2]?
**A.** > 1000 nM

**Q.** Which results are given for `CN(C)CCCCNC(=O)c1nc(NC(=O)c2cc(NC(=O)CCNC(=O)c3nc(NC(=O)C[C@H](CNC(=O)c4cc(NC(=O)c5nc(NC(=O)CCNC(=O)c6cc(NC(=O)c7nccn7C)cn6C)cn5C)cn4C)NC(=O)c4ccccc4)cn3C)cn2C)cn1C` [Compound B-424]?
**A.** EC50 [1]: 100 to 500 nM; EC50 [2]: 100 to 500 nM

**Q.** For `CCCCCCn1cc(NC(=O)c2nc(NC(=O)CCNC(=O)c3cc(NC(=O)c4nccn4C)cn3C)cn2C)cc1C(=O)NCCCC(=O)Nc1cn(C)c(C(=O)NCCC(=O)Nc2cc(C(=O)Nc3cn(C)c(C(=O)NCCC(=O)N4CCN(C)CC4)n3)n(C)c2)n1` [Compound B-425], which EC50 [1] is on record?
**A.** < 100 nM

**Q.** And the EC50 [2]?
**A.** < 100 nM

**Q.** Which results are given for `CCCCn1cc(NC(=O)c2nc(NC(=O)CCNC(=O)c3cc(NC(=O)c4nccn4C)cn3C)cn2C)cc1C(=O)NCCCC(=O)Nc1cn(C)c(C(=O)NCCC(=O)Nc2cc(C(=O)Nc3cn(C)c(C(=O)NCCC(=O)N4CCN(C)CC4)n3)n(C)c2)n1` [Compound B-426]?
**A.** EC50 [1]: 100 to 500 nM; EC50 [2]: 100 to 500 nM

**Q.** With `CN1CCN(C(=O)CCNC(=O)c2nc(NC(=O)c3cc(NC(=O)CCNC(=O)c4nc(NC(=O)CCCNC(=O)c5cc(NC(=O)c6nc(NC(=O)CCNC(=O)c7cc(NC(=O)c8nccn8C)cn7C)cn6C)cn5CCCCO)cn4C)cn3C)cn2C)CC1` [Compound B-427] as the molecule, how does the EC50 [1] read?
**A.** 100 to 500 nM

**Q.** What about the EC50 [2] of the same molecule?
**A.** < 100 nM

**Q.** With `CN(C)CCCCn1cc(NC(=O)c2nc(NC(=O)CCNC(=O)c3cc(NC(=O)c4nccn4C)cn3C)cn2C)cc1C(=O)NCCCC(=O)Nc1cn(C)c(C(=O)NCCC(=O)Nc2cc(C(=O)Nc3cn(C)c(C(=O)NCCC(=O)N4CCCCC4)n3)n(C)c2)n1` [Compound B-428] as the molecule, how does the EC50 [1] read?
**A.** < 100 nM

**Q.** What about the EC50 [2] of the same molecule?
**A.** < 100 nM

**Q.** What does the source list for `CCCn1cc(NC(=O)c2nc(NC(=O)CCNC(=O)c3cc(NC(=O)c4nccn4C)cn3C)cn2C)cc1C(=O)NCCCC(=O)Nc1cn(C)c(C(=O)NCCC(=O)Nc2cc(C(=O)Nc3cn(C)c(C(=O)NCCC(=O)N4CCN(C)CC4)n3)n(C)c2)n1` [Compound B-429]?
**A.** EC50 [1]: < 100 nM; EC50 [2]: < 100 nM

**Q.** For `CN(C)CCCn1cc(NC(=O)c2nc(NC(=O)CCNC(=O)c3cc(NC(=O)c4nccn4C)cn3C)cn2C)cc1C(=O)NCCCC(=O)Nc1cn(C)c(C(=O)NCCC(=O)Nc2cc(C(=O)Nc3cn(C)c(C(=O)NCCC(=O)N4CCCCC4)n3)n(C)c2)n1` [Compound B-430], which EC50 [1] is on record?
**A.** < 100 nM

**Q.** And the EC50 [2]?
**A.** < 100 nM

**Q.** With `CCCNC(=O)CCNC(=O)c1nc(NC(=O)c2cc(NC(=O)CCNC(=O)c3nc(NC(=O)CCCNC(=O)c4cc(NC(=O)c5nc(NC(=O)CCNC(=O)c6cc(NC(=O)c7nccn7C)cn6C)cn5C)cn4CCCO)cn3C)cn2C)cn1C` [Compound B-431] as the molecule, how does the EC50 [1] read?
**A.** < 100 nM

**Q.** And the EC50 [2]?
**A.** < 100 nM

**Q.** `CCCNC(=O)CCNC(=O)c1nc(NC(=O)c2cc(NC(=O)CCNC(=O)c3nc(NC(=O)CCCNC(=O)c4cc(NC(=O)c5nc(NC(=O)CCNC(=O)c6cc(NC(=O)c7nccn7C)cn6C)cn5C)cn4CCCOC(=O)c4ccccc4)cn3C)cn2C)cn1C` [Compound B-432] was tested. Which EC50 [1] did it give?
**A.** < 100 nM

**Q.** What about the EC50 [2] of the same molecule?
**A.** < 100 nM

**Q.** Which results are given for `CCCCn1cc(NC(=O)c2nc(NC(=O)CCNC(=O)c3cc(NC(=O)c4nccn4C)cn3C)cn2C)cc1C(=O)NCCCC(=O)Nc1cn(C)c(C(=O)NCCC(=O)Nc2cc(C(=O)Nc3cn(C)c(C(=O)NCCC(=O)N4CCCCC4)n3)n(C)c2)n1` [Compound B-433]?
**A.** EC50 [1]: < 100 nM; EC50 [2]: < 100 nM

**Q.** For `CCCNC(=O)c1nc(NC(=O)c2cc(NC(=O)CCNC(=O)c3nc(NC(=O)CC4(CNC(=O)c5cc(NC(=O)c6nc(NC(=O)CCNC(=O)c7cc(NC(=O)c8nccn8C)cn7C)cn6C)cn5C)CNC4)cn3C)cn2C)cn1C` [Compound B-439], which EC50 [1] is on record?
**A.** 100 to 500 nM

**Q.** And the EC50 [2]?
**A.** 100 to 500 nM

Source: patent US20250368628A1, “METHODS AND COMPOUNDS FOR MODULATING INHERITED GENETIC DISEASES” (Design Therapeutics, Inc., priority 2022, published 2025)
